In US9770025B2, “Fungicidal compositions” (Syngenta Participations AG, priority 2013, dated 2017):

Columns and labels:
Format in all cases: cell-based
Alternaria solani = Alternaria solani liquid culture growth inhibition; settings: for (B2) Inhibition (%) / (B4) Inhibition (%) / (B5) Inhibition (%): PDB; for (B2) Inhibition (%): Table 9; for (B4) Inhibition (%): Table 11; for (B5) Inhibition (%): Table 13
Experimental: (§1) Liquid Culture Tests in Well Plates
Mycelia fragments or conidia suspensions of a fungus, prepared either freshly from liquid cultures of the fungus or from cryogenic storage, were directly mixed into nutrient broth. DMSO solutions of the test compound (max. 10 mg/ml) was diluted with 0.025% Tween20 by factor 50 and 10 μl of this solution was pipetted into a microtiter plate (96-well format). […] The test plates were incubated in the dark at 24° C. and 96% rh. The inhibition of fungal growth was determined photometrically and visually after 2-4 days, depending on the pathosystem, and percent antifungal activity relative to the untreated check was calculated.
Alternaria solanil/Liquid Culture:
(§2) Conidia of the fungus from cryogenic storage were directly mixed into nutrient broth (PDB potato dextrose broth). After placing a (DMSO) solution of test compound into a microtiter plate (96-well format), the nutrient broth containing the fungal spores was added.

[1] = system: Mycosphaerella graminicola (Septoria tritici); experiment: Mycosphaerella graminicola (Septoria tritici) liquid culture growth inhibition; settings: for (B4) Inhibition (%) / (B5) Inhibition (%): PDB; for (B4) Inhibition (%): Table 12; for (B5) Inhibition (%): Table 14
Experimental: as §1
(§3) Mycelia fragments or conidia suspensions of a fungus, prepared either freshly from liquid cultures of the fungus or from cryogenic storage, were directly mixed into nutrient broth. DMSO solutions of the test compound (max. 10 mg/ml) was diluted with 0.025% Tween20 by factor 50 and 10 μl of this solution was pipetted into a microtiter plate (96-well format). The nutrient broth containing the fungal spores/mycelia fragments was then added to give an end concentration of the tested compound. The test plates were incubated in the dark at 24° C. and 96% rh. The inhibition of fungal growth was determined photometrically and visually after 2-4 days, depending on the pathosystem, and percent antifungal activity relative to the untreated check was calculated.
Mycosphaerella graminicola (Septoria tritici)/Liquid Culture:
as §2

Pythium ultimum = Pythium ultimum (seedling damping off) liquid culture growth inhibition; settings: 0.0625 ppm; PDB; Table 10
Experimental: as §1, §3
Pythium ultimum Seedling Damping Off)/Liquid Culture:
Mycelia fragments and oospores of a newly grown liquid culture of the fungus were directly mixed into nutrient broth (PDB potato dextrose broth). After placing a (DMSO) solution of the test compounds into a microtiter plate (96-well format), the nutrient broth containing the fungal mycelia/spore mixture was added.

[2] = system: Monographella nivalis (Microdochium nivale); experiment: Monographella nivalis (Microdochium nivale) liquid culture growth inhibition
Experimental: as §1, §3
Monographella nivalis (Microdochium nivale)/Liquid Culture:
as §2

Fusarium culmorum = Fusarium culmorum liquid culture growth inhibition; settings: in PDB
Experimental: as §1, §3
Fusarium culmorum/Liquid Culture:
as §2

[3] = system: Botryotinia fuckeliana (Botrytis cinerea); experiment: Botryotinia fuckeliana (Botrytis cinerea) liquid culture growth inhibition; settings: in Vogels Broth
Experimental: as §1, §3
Botryotinia fuckeliana (Botrytis cinerea)/Liquid Culture:
Conidia of the fungus from cryogenic storage were directly mixed into nutrient broth (Vogels broth). After placing a (DMSO) solution of test compound into a microtiter plate (96-well format), the nutrient broth containing the fungal spores was added.

Gaeumannomyces graminis = Gaeumannomyces graminis liquid culture growth inhibition; settings: in PDB
Experimental: as §1, §3
Gaeumannomyces graminis/Liquid Culture:
Mycelial fragments of the fungus from cryogenic storage were directly mixed into nutrient broth (PDB potato dextrose broth). After placing a (DMSO) solution of test compound into a microtiter plate (96-well format), the nutrient broth containing the fungal spores was added.

[4] = Monographella nivalis, read-out: (B10) Inhibition (%)
[5] = Zymoseptoria tritici, read-out: (B10) Inhibition (%)

C=CCSC(=O)n1c(N)c(-c2ccccc2C)c(=O)n1C(C)C [(B2), fenpyrazamine]
(B2) Inhibition (%) (Alternaria solani; 0.0313 ppm): 0%
(B2) Inhibition (%) (Alternaria solani; 0.0625 ppm): 1%

Cc1cc(C(F)(F)F)nn1CC(=O)N1CCC(c2nc(C3=NOC(c4c(F)cccc4F)C3)cs2)CC1 (stereo not drawn) [(B4), oxathiapiprolin]
(B4) Inhibition (%) (Alternaria solani; 0.0039 ppm): 0%
(B4) Inhibition (%) (Alternaria solani; 0.0078 ppm): 4%
(B4) Inhibition (%) (Alternaria solani; 0.0156 ppm): 0%
(B4) Inhibition (%) (Alternaria solani; 0.0313 ppm): 0%
(B4) Inhibition (%) ([1]; 0.0313 ppm): 8%
(B4) Inhibition (%) ([1]; 0.0625 ppm): 4%
(B4) Inhibition (%) (Pythium ultimum): 61%

Cc1ccc(C(=O)NC[C@@H](NC(=O)OCC(F)(F)F)C(C)C)cc1 [(B5), tolprocarb]
(B5) Inhibition (%) (Alternaria solani; 0.0391 ppm): 0%
(B5) Inhibition (%) (Alternaria solani; 0.0781 ppm): 0%
(B5) Inhibition (%) (Alternaria solani; 0.3125 ppm): 0%
(B5) Inhibition (%) ([1]; 0.0391 ppm): 7%
(B5) Inhibition (%) ([1]; 0.0781 ppm): 1%
(B5) Inhibition (%) ([1]; 0.1563 ppm): 4%
(B5) Inhibition (%) ([1]; 0.6250 ppm): 1%

CO/C=C(/C(=O)OC)c1ccccc1COc1ccc(C(F)(F)F)cc1Cl [(B6), flufenoxystrobin, reference compound]
(B6) Inhibition (%) ([2]; 0.0008 ppm, in PDB): 23%
(B6) Inhibition (%) ([2]; 0.0016 ppm, in PDB): 51%
(B6) Inhibition (%) (Alternaria solani; 0.0016 ppm, in PDB): 6%
(B6) Inhibition (%) (Alternaria solani; 0.0063 ppm, in PDB): 1%
(B6) Inhibition (%) ([1]; 0.0031 ppm, in PDB): 17%
(B6) Inhibition (%) ([1]; 0.0063 ppm, in PDB): 23%
(B6) Inhibition (%) ([1]; 0.0125 ppm, in PDB): 33%
(B6) Inhibition (%) (Fusarium culmorum; 0.0500 ppm): 5%
(B6) Inhibition (%) (Fusarium culmorum; 0.1000 ppm): 3%
(B6) Inhibition (%) (Fusarium culmorum; 0.2000 ppm): 12%
(B6) Inhibition (%) ([3]; 0.0063 ppm): 17%
(B6) Inhibition (%) ([3]; 0.0125 ppm): 23%
(B6) Inhibition (%) ([3]; 0.0250 ppm): 33%

CC1CC(C)(C)c2c(F)ccc(NC(=O)c3cn(C)nc3C(F)F)c21 (stereo not drawn) [(B9)]
inhibition at 0.125 ppm ([2]; Monographella nivalis, 0.1250 ppm, in PDB, read-out: (B9) Inhibition (%)): 0%
inhibition at 0.5 ppm ([2]; Monographella nivalis, 0.5000 ppm, in PDB, read-out: (B9) Inhibition (%)): 0%
inhibition at 1 ppm ([2]; Monographella nivalis, 1.0000 ppm, in PDB, read-out: (B9) Inhibition (%)): 10%
inhibition at 0.0078 ppm (Alternaria solani; Alternaria solani, 0.0078 ppm, in PDB, read-out: (B9) Inhibition (%)): 0%
inhibition at 0.0156 ppm (Alternaria solani; Alternaria solani, 0.0156 ppm, in PDB, read-out: (B9) Inhibition (%)): 11%
inhibition at 0.0313 ppm (Alternaria solani; Alternaria solani, 0.0313 ppm, in PDB, read-out: (B9) Inhibition (%)): 5%
inhibition at 0.0625 ppm (Alternaria solani; Alternaria solani, 0.0625 ppm, in PDB, read-out: (B9) Inhibition (%)): 22%
inhibition at 0.0039 ppm ([1]; Zymoseptoria tritici, 0.0039 ppm, in PDB, read-out: (B9) Inhibition (%)): 0%
inhibition at 0.0156 ppm ([1]; Zymoseptoria tritici, 0.0156 ppm, in PDB, read-out: (B9) Inhibition (%)): 0%
inhibition at 0.0313 ppm ([1]; Zymoseptoria tritici, 0.0313 ppm, in PDB, read-out: (B9) Inhibition (%)): 9%
inhibition at 0.0625 ppm ([1]; Zymoseptoria tritici, 0.0625 ppm, in PDB, read-out: (B9) Inhibition (%)): 7%
inhibition at 0.0039 ppm ([3]; Botrytis cinerea, 0.0039 ppm, read-out: (B9) Inhibition (%)): 14%
inhibition at 0.0078 ppm ([3]; Botrytis cinerea, 0.0078 ppm, read-out: (B9) Inhibition (%)): 19%
inhibition at 0.0156 ppm ([3]; Botrytis cinerea, 0.0156 ppm, read-out: (B9) Inhibition (%)): 31%
inhibition at 0.0313 ppm ([3]; Botrytis cinerea, 0.0313 ppm, read-out: (B9) Inhibition (%)): 52%

CCCCc1c(C)c2ccc(OCc3ccccc3/C(=C\OC)C(=O)OC)cc2oc1=O [(B10), coumoxystrobin, reference compound]
inhibition at 0.0008 ppm [2, 4]: 46%
inhibition at 0.0016 ppm [2, 4]: 81%
inhibition at 0.0016 ppm [1, 5]: 5%
inhibition at 0.0031 ppm [1, 5]: 13%
inhibition at 0.0063 ppm [1, 5]: 31%
inhibition at 0.05 ppm (Fusarium culmorum; Fusarium culmorum, 0.0500 ppm, read-out: (B10) Inhibition (%)): 12%
inhibition at 0.1 ppm (Fusarium culmorum; Fusarium culmorum, 0.1000 ppm, read-out: (B10) Inhibition (%)): 8%
inhibition at 0.2 ppm (Fusarium culmorum; Fusarium culmorum, 0.2000 ppm, read-out: (B10) Inhibition (%)): 11%

CNC(=O)C(OC)c1ccccc1COc1cc(C)ccc1C (stereo not drawn) [(B11), mandestrobin, reference compound]
(B11) Inhibition (%) ([2]; 0.0250 ppm, in PDB): 0%
(B11) Inhibition (%) (Alternaria solani; 0.0008 ppm, in PDB): 0%
(B11) Inhibition (%) (Alternaria solani; 0.0016 ppm, in PDB): 3%
(B11) Inhibition (%) (Alternaria solani; 0.0031 ppm, in PDB): 0%
(B11) Inhibition (%) (Alternaria solani; 0.0063 ppm, in PDB): 12%
(B11) Inhibition (%) (Fusarium culmorum; 0.1000 ppm): 0%
(B11) Inhibition (%) (Fusarium culmorum; 0.2000 ppm): 11%
(B11) Inhibition (%) (Gaeumannomyces graminis; 0.0500 ppm): 17%
(B11) Inhibition (%) (Gaeumannomyces graminis; 0.1000 ppm): 53%
(B11) Inhibition (%) ([3]; 0.0016 ppm): 5%
(B11) Inhibition (%) ([3]; 0.0250 ppm): 0%
(B11) Inhibition (%) ([3]; 0.0500 ppm): 8%

CC(=O)Oc1c(C)c(C)nc2c(F)cc(C(C)(C)C)cc12 [(B12), tebufloquin, reference compound]
(B12) Inhibition (%) ([2]; 0.2500 ppm, in PDB): 7%
(B12) Inhibition (%) ([2]; 0.5000 ppm, in PDB): 60%
(B12) Inhibition (%) (Alternaria solani; 0.0156 ppm, in PDB): 0%
(B12) Inhibition (%) (Alternaria solani; 0.0313 ppm, in PDB): 1%
(B12) Inhibition (%) ([3]; 0.0313 ppm): 5%
(B12) Inhibition (%) ([3]; 0.1250 ppm): 0%

COC(=O)N(OC)c1ccccc1COc1nc(Cl)c(Cl)cc1Cl [(B13), triclopyricarb, reference compound]
(B13) Inhibition (%) ([2]; (B13) triclopyricarb alone at 0.0016 ppm, in PDB): 23%
(B13) Inhibition (%) ([2]; (B13) triclopyricarb alone at 0.0031 ppm, in PDB): 51%
(B13) Inhibition (%) (Fusarium culmorum; 0.0500 ppm): 11%
(B13) Inhibition (%) (Fusarium culmorum; 0.1000 ppm): 10%
(B13) Inhibition (%) (Fusarium culmorum; 0.2000 ppm): 11%
(B13) Inhibition (%) ([3]; (B13) triclopyricarb alone at 0.0125 ppm): 8%
(B13) Inhibition (%) ([3]; (B13) triclopyricarb alone at 0.0250 ppm): 18%

CCN(C)/C=N/c1cc(C)c(Oc2nc(Cc3ccc(Cl)cc3)ns2)cc1C [(B14), N′-[4-[[3-[(4-chlorophenyl)methyl]-1,2,4-thiadiazol-5-yl]oxy]-2,5-dimethylphenyl]-N-ethyl-N-methyl-methanimidamide, reference compound]
inhibition at 0.25 ppm ([2]; Monographella nivalis, (B14) compound of formula IV alone at 0.2500 ppm, in PDB): 40%
